Data taken from patent US10729137B2, “Quaternary fungicidal mixture” (priority 2013, dated 2020).
“Also recorded” adds a separate entry of the source.

Key:
[1] = system: dollar spot, Sclerotinia homeocarpa; test: Field study of disease control on creeping bentgrass plots (percent inhibition, Colby synergy); assay type: in vivo; conditions: four applications at 14 day intervals, rated 15 days after final application, chlorothalonil 3.1, iprodione 1.03, thiophanate methyl 1.03, tebuconazole 0.31 LBai/A where included
Description: In the context of the present subject matter, the term “synergy” is as defined by S. R. Colby in an article entitled “Calculation of the synergistic and antagonistic responses of herbicide combinations” published in the journal Weeds, 1967, 15, p. 20-22, incorporated herein by reference in its entirety. The action expected for a given combination of four active components can be calculated as follows:
[formula] in which E represents the expected percentage of fungicidal control (percent inhibition) for the multiple mixture of fungicides at defined doses (for example equal to x, y, z and w, respectively). X is the percentage of fungicide control observed by chlorothalonil at a defined dose (equal to x). Y is the percentage of fungicide control observed by iprodione at a defined dose (equal to y). Z is the percentage of fungicide control observed by thiophanate methyl at a defined dose (equal to z). W is the percentage of fungicide control observed by tebuconazole at a defined dose (equal to w). Here, efficacy or percent inhibition is determined in %. 0% means efficacy that corresponds to the Control, i.e., as if no treatment had been applied. Whereas, a percent inhibition of 100% means that no infection is observed. When the percent inhibition observed for the combination is greater than E, there is a synergistic effect. When the percent inhibition observed for the combination is equal to E, there is an additive effect and wherein the percent inhibition observed for the combination is lower than E, there is an antagonistic effect.
In the Colby model, one can transform its use of “percent inhibition” (or control) to “percent-of-untreated Control” to solve for E1 rather than E and simplify the equation:
[formula] where E1=100−E (conversely, solving for E, 100−E1=E), X1=100−X, Y1=100−Y, Z1=100−Z, and W1=100−W. Although many combinations of fungicides have been studied and evaluated by means of the Colby Index, it is quite clear by modeling such synthetic expressions of synergy that the addition of a third, or even fourth, active ingredient to the premix may encounter the Point of Diminishing Returns caused by correction factors for 3- and 4-way interactions that offset the increase in E (or decrease in E1). In marked contrast, the present subject matter has shown an expansive effect and performance boost so great that differences between the observed and expected values computed according to Colby can best be used as a descriptive statistic confirming the quarternary fungicidal mixture's obvious effect.
(§1) A field study was conducted to identify which combinations would maintain or improve Turf Quality (TQ) and prevent or cure crown, basal or foliar pathogens such as dollar spot. Each solo treatment, 2-way (Pair), 3-way (Triad), and the present quaternary fungicidal mixture was applied bi-weekly beginning Jul. 1, 2013 prior to any evidence of decline in TQ or appearance of disease. Experimental plots were laid out in a Randomized Complete Block design.
(§2) The dosage of each fungicidal active substance was held constant regardless of whether it appeared alone or in combination with other fungicides in order to quantify synergy according to the Colby formula. The quaternary mixture of the present subject matter was applied at the lowest rate specified herein, about 5.5 lb active substance per acre. Applications were made to replicate plots of creeping bentgrass (Agrostis stolonifera), each measuring 3 ft×5 ft. The turf was mowed as needed to maintain standard fairway height (blade length less than 0.5″). Four applications were made at 14 day re-treatment intervals, which is a conventional treatment schedule at the time of year when outbreaks of turfgrass disease occur reliably in the mid-Atlantic region (Greenville, Del.).
The mix rate and volume of dilute spray applied to each plot was held constant. […]

[2] = system: creeping bentgrass (Agrostis stolonifera); test: Field study, Turf Quality (TQ) rating of treated plots; assay type: in vivo; conditions: ordinal scale 1-9 (8 and higher ideal, under 6 unacceptable), same plots, rates and timing, 15 days after final application
Protocol: as §1, §2
The mix rate and volume of dilute spray applied to each plot was held constant. A CO2 backpack sprayer outfitted with TeeJet AI9504E flat fan nozzle delivered a water dilution of each treatment at the use rate of 43.5 gallons per acre (407 liters Ha^−1) and 35 psi (0.375 gallons per minute).
Plots were evaluated and disease or cause of lesion identified 15 days after the final scheduled application, which was made on 12 August. At that time researchers rated each plot's TQ, the incidence of disease and its severity. Percent disease ratings were calculated on the basis of the percent of area of each plot showing symptoms of a disease, primarily dollar spot. Turf quality and color ratings are typically used as an indicator of the health of the turfgrass. Turf quality is scored on an ordinal scale from 1-9, where plots rated 8 and higher are considered ideal for color, uniformity and density, around 6.5 and above is considered acceptable, and ratings under 6 unacceptable for turfgrass disease and/or turf quality.
Disease pressure evidenced by the untreated control ratings was considered severe. Six untreated control plots averaged 40% incidence, primarily due to a continuous increase in dollar spot pressure over time. By the end of the trial, TQ of the untreated plots declined to a low level, where leaf die-back, bleaching and lesions rated an average TQ of 4.2. Turf quality of plots treated with each active substance alone at these dosages was poor, averaging 3.9.

Row | SMILES | Percent Inhibition [1] [%] | Turf Quality [2] | Percent Inhibition ([1]; listed as thiophanate methyl) | Turf Quality ([2]; listed as thiophanate methyl) | Percent Inhibition ([1]; listed as iprodione) | Turf Quality ([2]; listed as iprodione)
1 | N#Cc1c(Cl)c(Cl)c(Cl)c(C#N)c1Cl [Chlorothalonil] | 15.8 | 4.3 | – | – | – | –
2 | COC(=O)NC(=S)Nc1ccccc1NC(=S)NC(=O)OC [Thio methyl, Thiophanate methyl] | 0 | 3.3 | no better than the untreated control | no better than the untreated control; also recorded: significantly lower ratings than those of the untreated Control | – | –
3 | CC(C)(C)C(O)(CCc1ccc(Cl)cc1)Cn1cncn1 (stereo not drawn) [Tebuconazole] | 19.3 | 4.0 | – | – | – | –
4 | CC(C)NC(=O)N1CC(=O)N(c2cc(Cl)cc(Cl)c2)C1=O [Iprodione] | 5.8 | 4.0 | – | – | no better than the untreated control | no better than the untreated control
